Assay results published in the supplement of paper PMC10307832.

Columns and labels:
Assay in all cases: relative viability (nuclei count vs DMSO), 5 days (fraction); higher = more cells survive
MIM1 = compound: CC1=CSC(=NC2CCCCC2)N1/N=C/C3=C(C(=C(C=C3)O)O)O [MIM1]
Procedure, shortened: (§1)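 Following overnight incubation at 37 °C, lung cancer cell lines in 1536-well plates were pinned with five library-drug doses (not always all listed) in √10 steps on vehicle-anchored plates. The cells then spent 5 days without medium change before a combined fix, permeabilisation and Hoechst stain, 4× imaging and MetaXpress nuclear counts. Viability is the treated-to-vehicle ratio of nuclei, taken as the median across plates. Only plates with control CV below 25% and at least one doubling passed.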

Luminespib = compound: CCNC(=O)c1noc(-c2cc(C(C)C)c(O)cc2O)c1-c1ccc(CN2CCOCC2)cc1 [Luminespib]
Procedure, shortened: as §1

Saracatinib = compound: CN1CCN(CCOc2cc(OC3CCOCC3)c3c(Nc4c(Cl)ccc5c4OCO5)ncnc3c2)CC1 [Saracatinib]
Procedure, shortened: as §1

Nilotinib = compound: Cc1cn(-c2cc(NC(=O)c3ccc(C)c(Nc4nccc(-c5cccnc5)n4)c3)cc(C(F)(F)F)c2)cn1 [Nilotinib]
Procedure, shortened: as §1

Lenalidomide = compound: Nc1cccc2c1CN(C1CCC(=O)NC1=O)C2=O [Lenalidomide]
Procedure, shortened: as §1

Cell Line	relative viability (MIM1; 0.2 µM)	relative viability (MIM1; 0.6325 µM)	relative viability (MIM1; 2 µM)	relative viability (MIM1; 6.325 µM)	relative viability (MIM1; 20 µM)	relative viability (Luminespib; 0.002 µM)	relative viability (Luminespib; 0.006325 µM)	relative viability (Luminespib; 0.01 µM, anchor plate)	relative viability (Luminespib; 0.02 µM)	relative viability (Luminespib; 0.06325 µM)	relative viability (Luminespib; 0.2 µM)	relative viability (Saracatinib; 0.02 µM)	relative viability (Saracatinib; 0.2 µM)	relative viability (Saracatinib; 0.6325 µM)	relative viability (Saracatinib; 2 µM)	relative viability (Nilotinib; 0.001 µM)	relative viability (Nilotinib; 0.003162 µM)	relative viability (Nilotinib; 0.01 µM)	relative viability (Nilotinib; 0.03162 µM)	relative viability (Nilotinib; 0.1 µM)	relative viability (Lenalidomide; 0.253 µM)	relative viability (Lenalidomide; 0.8 µM)	relative viability (Lenalidomide; 2.53 µM)	relative viability (Lenalidomide; 8 µM)
NCI-H2170	0.943	0.907	1.02	0.603	0.28	0.974	0.945	0.732	0.586	0.793	0.179	1	0.926	0.986	0.689	0.864	1.16	1.2	0.875	0.952	1	0.979	1.01	0.782
NCI-H2228	0.999	0.978	1.31	0.517	0.172	1.23	0.87	0.148	0.451	0.172	0.157	1.04	0.825	0.9	0.841	0.773	1.5	1.36	0.698	0.511	0.795	1.07	1.22	0.89
NCI-H2342	0.944	1	1.01	0.803	1.03	0.974	0.955	0.76	0.619	0.774	0.592	1.07	0.947	1.14	0.945	0.868	0.928	1.02	0.831	1.02	1.01	0.952	1.04	0.733
NCI-H2347	1.1	0.972	1.09	0.757	0.478	1.02	0.721	0.421	0.911	0.722	0.318	0.983	0.903	1.09	1.06	0.97	1.14	1.13	0.841	0.793	1.03	1.13	1.17	0.9
NCI-H2405	1.02	1.08	1.05	0.742	0.573	1.07	0.837	0.686	0.831	0.274	0.212	0.985	0.861	0.775	0.52	0.994	0.975	0.966	0.821	0.551	0.969	0.909	1.01	0.831
